# Bridge positions count the residues as written; N and C are the ends. Square brackets hold non-standard residues; d marks the D form. Peptide text beside a SMILES is read from it. * marks the point of attachment. Ileψ(thiazoline)Cys = CC[C@H](C)[C@H](N)C1=N[C@H](C(=O)*)CS1; dOrn = NCCC[C@@H](N)C(=O)O
# Legend:
# [1] = system: K. aridum; assay: susceptibility of K. aridum to antibiotic disks (diffusion method); assay type: cell-based, Kibdelosporangium aridum; conditions: one week at 28°C; for zones of inhibition: disk 5 µg, nutrient agar seeded with K. aridum, zones contained a few resistant colonies; for susceptibility by the diffusion method (in words): BBL susceptibility disks, content per antibiotic
# Experimental: Susceptibility of K. aridum to antibiotics was examined by placing BBL susceptibility disks on nutrient agar plates seeded with K. aridum as an overlay. Diameters of the zones of inhibition were measured after incubation for one week at 28°C.
# Susceptibility to Antibiotics. By the diffusion method, K. aridum was resistant to disks impregnated with gentamicin (10 µg), tobramycin (10 µg), streptomycin (10 µg), vancomycin (30 µg), penicillin (10 units), bacitracin (2 units), lincomycin (2 µg), clindamycin (2 µg), and cephalothin (30 µg). Chlortetracycline (5 µg) produced 18 mm zones of inhibition; tetracycline (5 µg) 11-12 mm zones; rifampin (5 µg) 11-15 mm zones; novobiocin (5 µg) 27-28 mm zones. All zones of inhibition contained at least a few resistant colonies.
# [2] = system: Staph. aureus HH 127; assay: in vivo activity against intraperitoneal infection in mice (ED50); conditions: Staphylococcus aureus, HH127, read-out: ED₅₀
# Experimental: The ED₅₀'s were as follows: AAD 216 aglycone, 7.6 mg/kg; AAD 216 pseudo- aglycone, 7.6 mg/kg; AAD 216A pseudoaglycone, 5.0 mg./kg; vancomycin, 1.56 mg/kg. Similarly, the ED₅₀'s of AAD 216A pseudoaglycone, AAD 216B pseudoaglycone, AAD 216C pseudoaglycone and vancomycin, determined by utilizing a similar protocol, were 12.5 mg/kg, 7.6 mg/kg, 10.8 mg/kg and 1.92 mg/kg, respectively.
Molecule,zones of inhibition [1],susceptibility by the diffusion method (in words) [1],other results
CO[C@H]1/C=C/O[C@@]2(C)Oc3c(C)c(O)c4c(O)c(c(/C=N/N5CCN(C)CC5)c(O)c4c3C2=O)NC(=O)/C(C)=C\C=C\[C@H](C)[C@H](O)[C@@H](C)[C@@H](O)[C@@H](C)[C@H](OC(C)=O)[C@@H]1C [rifampin],11-15 mm,,
CN(C)[C@@H]1C(O)=C(C(N)=O)C(=O)[C@@]2(O)C(O)=C3C(=O)c4c(O)ccc(Cl)c4[C@@](C)(O)[C@H]3C[C@@H]12 [Chlortetracycline],18 mm,,
CCC[C@@H]1C[C@@H](C(=O)N[C@@H]([C@H]2O[C@H](SC)[C@H](O)[C@@H](O)[C@H]2O)[C@@H](C)O)N(C)C1 [lincomycin],,resistant,
CN(C)[C@@H]1C(O)=C(C(N)=O)C(=O)[C@@]2(O)C(O)=C3C(=O)c4c(O)cccc4[C@@](C)(O)[C@H]3C[C@@H]12 [tetracycline],11-12 mm,,
CNC1C(=O)NC2C(=O)NC(C(=O)NC3C(=O)NC4C(=O)NC(C(=O)NC(C(=O)O)c5cc(O)cc(O)c5-c5cc4ccc5O)C(O)c4cc(Cl)c(c(Cl)c4)Oc4cc3cc(c4O)Oc3ccc(cc3Cl)C2O)c2cc(cc(O)c2Cl)Oc2cc1ccc2O (stereo not shown) [AAD 216 aglycone],,,ED50 [2]: 7.6 mg/kg
NC[C@H]1O[C@H](O[C@H]2[C@H](O)[C@@H](O[C@H]3O[C@H](CO)[C@@H](O)[C@H](N)[C@H]3O)[C@H](N)C[C@@H]2N)[C@H](N)C[C@@H]1O [tobramycin],,resistant,
CC[C@H](C)[C@H](N)C1=N[C@H](C(=O)N[C@@H](CC(C)C)C(=O)N[C@H](CCC(=O)O)C(=O)N[C@H](C(=O)N[C@H]2CCCCNC(=O)[C@H](CC(N)=O)NC(=O)[C@@H](CC(=O)O)NC(=O)[C@H](Cc3cnc[nH]3)NC(=O)[C@@H](Cc3ccccc3)NC(=O)[C@H]([C@@H](C)CC)NC(=O)[C@@H](CCCN)NC2=O)[C@@H](C)CC)CS1 [bacitracin] ({Ileψ(thiazoline)Cys}-L[dE]IK[dOrn]I[dF]H[dD]N; lactam 4-C),,resistant,
gentamicin,,resistant,
[H]/N=C(/N)N[C@H]1[C@H](O)[C@@H](O)[C@H](O[C@@H]2O[C@@H](C)[C@](O)(C=O)[C@H]2O[C@@H]2O[C@@H](CO)[C@H](O)[C@@H](O)[C@@H]2NC)[C@@H](N/C(N)=N\[H])[C@@H]1O [streptomycin],,resistant,
CO[C@@H]1[C@@H](OC(N)=O)[C@@H](O)[C@H](Oc2ccc3c(O)c(NC(=O)c4ccc(O)c(CC=C(C)C)c4)c(=O)oc3c2C)OC1(C)C [novobiocin],27-28 mm,,
CN[C@H](CC(C)C)C(=O)N[C@H]1C(=O)N[C@@H](CC(N)=O)C(=O)N[C@H]2C(=O)N[C@H]3C(=O)N[C@H](C(=O)N[C@H](C(=O)O)c4cc(O)cc(O)c4-c4cc3ccc4O)[C@H](O)c3ccc(c(Cl)c3)Oc3cc2cc(c3O[C@@H]2O[C@H](CO)[C@@H](O)[C@H](O)[C@H]2O[C@H]2C[C@](C)(N)[C@H](O)[C@H](C)O2)Oc2ccc(cc2Cl)[C@H]1O [vancomycin],,resistant,
penicillin,,resistant,
CC(=O)OCC1=C(C(=O)O)N2C(=O)[C@@H](NC(=O)Cc3cccs3)[C@H]2SC1 [cephalothin],,resistant,

# — patent EP0211490B1, “Antibiotics of the vancomycin-class” (SMITHKLINE BEECHAM CORPORATION, priority 1985, dated 1987)
